PMC5007466, “VCP recruitment to mitochondria causes mitophagy impairment and neurodegeneration in models of Huntington's disease” (Nature Communications, 2016)

Assays:
YAC128 mice [1] = test: VCP mitochondrial level, YAC128 mouse striatum; assay type: in vivo; details: YAC128, 3 mg kg^−1 per day from 3 to 6 months versus TAT, n=6
Protocol: Cells were washed with cold PBS and incubated on ice for 30 min in a lysis buffer (250 mM sucrose, 20 mM HEPES-NaOH, pH 7.5, 10 mM KCl, 1.5 mM MgCl2, 1 mM EDTA, protease inhibitor cocktail and phosphatase inhibitor cocktail). Mouse brains were minced and homogenized in the lysis buffer and then placed on ice for 30 min. Collected cells or tissue were disrupted 20 times by repeated aspiration through a 25-gauge needle, followed by a 30-gauge needle. The homogenates were spun at 800 g for 10 min at 4 °C, and the resulting supernatants were spun at 10,000 g for 20 min at 4 °C. The pellets were washed with lysis buffer and spun at 10,000 g again for 20 min at 4 °C. The final pellets were suspended in lysis buffer containing 1% Triton X-100 and were mitochondrial-rich lysate fractions. The supernatant was centrifuged at 100,000 g, 4 °C, for 1 h, the pellets were suspended in lysis buffer containing 1% Triton X-100 as ER fractions. The final supernatant was cytosolic fractions. The mitochondrial proteins VDAC, the ER protein WFS1 and the cytosolic protein Enolase were used as loading controls for mitochondrial, ER and cytosolic fractions, respectively.
YAC128 (FVB-Tg(YAC128)53Hay/J, JAX stock number: 004938) breeders (FVB/N genetic background) were purchased from Jackson Laboratories. […]
(§1) Protein concentrations were determined by Bradford assay. […]

[2] = tested on: wild-type mouse striatal cells; test: GFP-LC3B association with mitochondria in cells expressing Flag-VCP; assay type: cell-based; details: wt striatal cells, 36 h
Protocol: Figure 5 Treatment of HV-3 reduces excessive mitophagy in HD cell cultures and HD mouse brains. (a) HdhQ7 and HdhQ111 cells were treated with control siRNA (con) or VCP siRNA (siVCP) for 48 h. Mitochondria were isolated and LC3 mitochondrial levels were determined by WB. Representative blots are from three independent experiments. The quantitation of LC3 II levels on mitochondria is provided on the right. VADC was used as a loading control. (b) Flag-VCP and GFP-LC3B were co-transfected into wild-type striatal cells. Mitochondria were isolated after 36 h of transfection. The GFP-LC3B levels on mitochondria were examined by WB. VDAC was used as a loading control. Representative blots are from three independent experiments. Histogram: quantitation of GFP-LC3B mitochondrial protein level. HdhQ7 and HdhQ111 cells were treated with control peptide TAT or peptide HV-3 (3 uM/day for 3 days). (c) HdhQ111 cells were transfected with GFP-LC3B for 24 h. The number of GFP-LC3B puncta was quantitated and shown in the histogram. […] (d) Enzyme activity of lysosomal Cathepsin B was measured using a Cathepsin B assay kit. […] (e) Mitochondrial mass was measured by the fluorescent density of Mitotracker green. […] Histogram: the number of mitophagosomes per 100 μm^2 was counted and quantitated. Fifteen random areas in the striatum of each animal were analyzed. […]
as §1

YAC128 mice [3] = test: Rotarod performance; assay type: in vivo, mouse; details: YAC128, 3 mg/kg/day from 3 months; from 6 to 12 months of age, n=15–20
From the text: YAC128 (FVB-Tg(YAC128)53Hay/J, JAX stock number: 004938) breeders (FVB/N genetic background) were purchased from Jackson Laboratories. The YAC128 mice contain a full-length human huntingtin gene modified with a 128 CAG repeat expansion in exon 1. The mice were mated, bred and genotyped in the animal facility of Case Western Reserve University. Male mice at the ages of 2, 3, 6, 9 and 12 months were used in the study.
YAC128 mice (Tg) and their age-matched wt littermates were implanted with an osmotic pump containing TAT control peptide or HV-3 peptide (3 mg/kg/day, each) starting from the age of 3 months. The pump was replaced once every month. By the age of 12 months, the treatments were terminated and the mouse samples were harvested for analysis.
The motor coordination and balance of YAC128 mice were tested on an accelerating Rotarod (IITC Life Sciences, Serials 8) at the ages of 2, 3, 6, 9 and 12 months. Training and baseline testing for motor function tasks were conducted at 2 months of age. For training, mice were given three 120-s trials per day at a fixed-speed of 15 r.p.m. for three consecutive days. During the testing phase, the Rotarod accelerated from 5 to 40 r.p.m. over 3 min; the maximum score was 300 s. Rotarod scores were the average of three trials per day (with 2 h rest between trials) for 3 consecutive days.

C57Black mice = test: Toxicity analysis in naive mice; assay type: in vivo, mouse
Protocol: Supplementary Figure 8 : Toxicity analysis of HV -3in naïve mice .
We performed a toxicity analysis of HV-3 in mice. Six -week-old C57Black mice were treated with saline or peptide HV-3 at 3mg/kg/day by Alzet pump implantation. After 4- week treatment, the plasma, blood and whole mouse bodies of mice were collected. Examination on blood chemistry (Supplementary Table 1), hematology (Supplementary Table 2) and general necropsy of mice were performed at the Animal Diagnostic Laboratory at Stanford University. The experimenter who conducted the analysis was blind to the treatment groups. Automated hematology was performed on the Sysmex XT-2000iV analyzer system. Blood smears were made for all full CBC samples and reviewed by a medical technologist. Manual differentials were performed as indicated by species and automated analysis. Chemistry analysis was performed on the Siemens Dimension Xpand analyzer.
(a) Frozen tissue sections of brain and spleen were stained with anti-CD3 antibody by immunohistochemistry. There is no observed difference in the immuno-density of CD3 between saline-and HV-3- treated groups. Scale bar: 100 µm. (b) The size and weight of spleens in mice treated with saline or peptide HV-3 were compared. Left: the ratio of spleen weight to body weight was calculated and expressed as mean ± SEM of five mice in each group. Right: the images of spleens of mice treated with saline or peptide HV-3. There is no observed difference in the size of the spleens. Paired Student’s t test. Four-week sustained treatment with HV-3 by pump implantation had no effects on blood chemistry (Supplementary Table 1), hematology (Supplementary Table 2), and gross necropsy of naïve mice when compared to mice treated with saline. A four-week treatment with HV-3 had […] on immuno-density of CD3, a marker of T-cell for adaptive immune response, in the brains and spleens of naïve mice (a). Treatment with HV-3 had no effects on the size and weight of the spleens (b). […]

[4] = 3 mg/kg/day, 4 weeks, versus saline

## CSCC[C@H](NC(=O)[C@@H](NC(=O)[C@H](CC(C)C)NC(=O)[C@@H](NC(=O)[C@H](Cc1c[nH]cn1)NC(=O)CCCCCNC(=O)[C@H](CCCNC(=N)N)NC(=O)[C@H](CCCNC(=N)N)NC(=O)[C@H](CCCNC(=N)N)NC(=O)[C@H](CCC(N)=O)NC(=O)[C@H](CCCNC(=N)N)NC(=O)[C@H](CCCNC(=N)N)NC(=O)[C@H](CCCCN)NC(=O)[C@H](CCCCN)NC(=O)[C@H](CCCNC(=N)N)NC(=O)CNC(=O)[C@@H](N)Cc1ccc(O)cc1)C(C)C)C(C)C)C(=O)N[C@@H](CS)C(=O)N[C@@H](C)C(=O)N[C@H](C(N)=O)[C@@H](C)O [HV-3]
YAC128 mice [1]
  VCP translocation to mitochondria in striatum: blocked VCP translocation to mitochondria
[2]
  GFP-LC3B association with mitochondria: could be inhibited by treatment with HV-3
YAC128 mice [3]
  rotarod performance: improved general movement activity and rotarod performance
C57Black mice; 3 mg kg^−1 per day, 4-week Alzet pump
  toxicity: not toxic to naive mice
C57Black mice; [4]
  CD3 immunodensity in brain and spleen: no significant effects on the immunodensity of CD3
  gross necropsy: no effects
C57Black mice; 3 mg/kg/day, 4 weeks, versus saline, n = 5
  size and weight of spleens: no obvious effects on the size and weight of the spleens
